Results on 19 compounds are retold here after ChEMBL document CHEMBL3044666, “Synthesis, biological evaluation and molecular modeling studies of Schiff bases derived from 4-methylsalicylic acid as potential immunosuppressive agents” (Med Chem Res, 2013).

Data set [1] can be described thus: Immunosuppressive activity in BALB/C Mus musculus (mouse) lymph node cells assessed as inhibition of conA-induced proliferation incubated at 24 hr post conA-challenge measured after 72 hr by MTT assay. The format is functional. For orientation: Tetrazolium dyes change colour on reduction, which living cells bring about.
Data set [2] can be described thus: Selectivity index, ratio of CC50 for BALB/C Mus musculus (mouse) lymph node cells to IC50 for conA-induced BALB/C lymph node cells. The format is functional.
Data set [3] is described as follows: Cytotoxicity against BALB/C Mus musculus (mouse) lymph node cells after 24 hr by MTT assay. It counts as cell-based.
The target of data set [4] is Phosphatidylinositol 4,5-bisphosphate 3-kinase catalytic subunit gamma isoform (Homo sapiens, UniProt P48736). The experiment in a line: Inhibition of PI3Kgamma (unknown origin) using [33gammaP]ATP and phosphotidylinositol as substrate by scintillation proximity assay. (In a scintillation proximity assay essentially only radioactivity close to the scintillant gives light.)
Sequence of Phosphatidylinositol 4,5-bisphosphate 3-kinase catalytic subunit gamma isoform (P48736 whole entry, canonical isoform): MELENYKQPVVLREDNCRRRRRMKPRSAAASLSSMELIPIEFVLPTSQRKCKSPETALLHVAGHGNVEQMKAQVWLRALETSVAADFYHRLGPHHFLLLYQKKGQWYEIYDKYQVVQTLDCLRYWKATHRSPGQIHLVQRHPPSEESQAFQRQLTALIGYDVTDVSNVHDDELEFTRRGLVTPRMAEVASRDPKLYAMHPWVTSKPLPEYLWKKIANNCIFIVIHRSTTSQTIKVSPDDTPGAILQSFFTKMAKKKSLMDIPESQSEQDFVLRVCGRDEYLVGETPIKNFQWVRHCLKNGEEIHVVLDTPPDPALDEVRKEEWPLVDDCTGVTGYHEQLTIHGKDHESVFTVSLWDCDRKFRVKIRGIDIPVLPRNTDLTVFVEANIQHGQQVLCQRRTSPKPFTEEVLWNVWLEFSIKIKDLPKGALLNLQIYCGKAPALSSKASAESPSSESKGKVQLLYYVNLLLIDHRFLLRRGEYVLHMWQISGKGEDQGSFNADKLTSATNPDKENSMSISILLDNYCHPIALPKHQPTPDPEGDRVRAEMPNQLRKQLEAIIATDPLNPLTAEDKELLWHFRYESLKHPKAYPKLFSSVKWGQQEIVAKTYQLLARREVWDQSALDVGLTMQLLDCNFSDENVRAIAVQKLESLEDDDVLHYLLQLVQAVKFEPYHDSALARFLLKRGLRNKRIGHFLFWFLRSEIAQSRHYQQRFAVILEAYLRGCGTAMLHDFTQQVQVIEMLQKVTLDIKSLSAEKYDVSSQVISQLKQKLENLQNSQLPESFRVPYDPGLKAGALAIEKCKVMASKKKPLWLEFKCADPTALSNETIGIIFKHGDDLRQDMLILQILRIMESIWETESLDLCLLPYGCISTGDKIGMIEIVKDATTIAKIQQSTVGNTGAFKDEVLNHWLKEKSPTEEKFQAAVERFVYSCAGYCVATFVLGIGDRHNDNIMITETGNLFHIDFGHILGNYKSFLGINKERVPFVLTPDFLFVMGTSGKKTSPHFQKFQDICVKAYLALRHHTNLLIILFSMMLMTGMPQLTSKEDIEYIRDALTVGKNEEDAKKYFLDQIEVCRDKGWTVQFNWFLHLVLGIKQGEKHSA

The species entered for data set [5] is Mus musculus. In words: Induction of apoptosis in ConA-induced BALB/C Mus musculus (mouse) lymph node cells assessed as caspase3 activation after 24 hr by Western blot analysis. It counts as functional.
A short description of data set [6]: Ratio of CsA CC50 to compound CC50 for BALB/C Mus musculus (mouse) lymph node cells. The format is ADME.
In data set [7] the target is Phosphatidylinositol 4,5-bisphosphate 3-kinase catalytic subunit gamma isoform (Mus musculus) (UniProt Q9JHG7). In words: Inhibition of PI3Kgamma-mediated AKT Ser473 phosphorylation in ConA-induced BALB/C Mus musculus (mouse) lymph node cells after 24 hr by Western blot analysis. A general note: In western blotting, separated proteins are transferred to a membrane and probed.
Sequence of Phosphatidylinositol 4,5-bisphosphate 3-kinase catalytic subunit gamma isoform (Mus musculus) (Q9JHG7 whole entry, looked up, canonical isoform): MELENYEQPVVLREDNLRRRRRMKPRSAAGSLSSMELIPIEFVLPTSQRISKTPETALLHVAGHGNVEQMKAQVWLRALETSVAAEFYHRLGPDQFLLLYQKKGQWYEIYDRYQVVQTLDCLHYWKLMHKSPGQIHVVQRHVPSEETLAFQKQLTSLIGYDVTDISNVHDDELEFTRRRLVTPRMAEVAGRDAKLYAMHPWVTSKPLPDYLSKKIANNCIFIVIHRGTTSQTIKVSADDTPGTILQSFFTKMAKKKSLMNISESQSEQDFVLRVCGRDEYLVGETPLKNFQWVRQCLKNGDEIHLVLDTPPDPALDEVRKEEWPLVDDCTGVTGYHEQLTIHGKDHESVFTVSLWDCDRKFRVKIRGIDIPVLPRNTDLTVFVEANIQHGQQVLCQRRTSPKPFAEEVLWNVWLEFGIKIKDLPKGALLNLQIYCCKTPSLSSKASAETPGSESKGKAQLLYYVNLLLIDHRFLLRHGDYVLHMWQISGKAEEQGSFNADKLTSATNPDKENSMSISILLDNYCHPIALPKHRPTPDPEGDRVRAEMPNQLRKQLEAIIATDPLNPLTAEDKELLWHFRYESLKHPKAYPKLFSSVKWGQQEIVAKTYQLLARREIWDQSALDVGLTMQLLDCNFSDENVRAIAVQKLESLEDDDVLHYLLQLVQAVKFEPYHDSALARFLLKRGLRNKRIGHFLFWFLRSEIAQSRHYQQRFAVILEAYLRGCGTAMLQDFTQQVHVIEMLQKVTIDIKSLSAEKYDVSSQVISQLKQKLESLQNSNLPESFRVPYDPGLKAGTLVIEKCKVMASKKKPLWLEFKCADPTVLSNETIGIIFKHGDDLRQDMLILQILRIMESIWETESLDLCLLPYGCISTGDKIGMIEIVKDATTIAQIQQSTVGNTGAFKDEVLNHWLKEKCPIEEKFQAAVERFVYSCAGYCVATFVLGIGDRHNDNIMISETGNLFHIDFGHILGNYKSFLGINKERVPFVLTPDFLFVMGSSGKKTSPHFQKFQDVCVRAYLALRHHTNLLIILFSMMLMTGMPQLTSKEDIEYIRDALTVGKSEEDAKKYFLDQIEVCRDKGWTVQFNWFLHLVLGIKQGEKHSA

The species entered for data set [8] is Mus musculus. The experiment in a line: Induction of apoptosis in ConA-induced BALB/C Mus musculus (mouse) lymph node cells after 24 hr by AnnexinV-FITC based flow cytometric analysis. It counts as functional.

In general, IC50 refers to the concentration needed to halve the response being measured. Usually CC50 stands for the concentration giving 50% cytotoxicity. A lower CC50 goes with greater toxicity to the cells.

Molecules are shown by their SMILES. A value given as a limit tells only on which side of the number the result lay.

In the case of `Cc1ccc(C(=O)N/N=C/c2ccc(Cl)cc2)c(O)c1`, in data set [1], the IC50 turned out to be 12.3 µM. For the same compound, in data set [2], the “Ratio CC50/IC50” value is 9.45. In addition, in data set [3], the CC50 at 24 h stood at 116 µM.
The like results for `Cc1ccc(C(=O)N/N=C/c2cccc(Cl)c2)c(O)c1` were, in that order, 24.4 µM, 30.89 and 636 µM.
The corresponding values for `Cc1ccc(C(=O)N/N=C/c2ccccc2)c(O)c1` are 53.9 µM, 10.74 and 578 µM.
The like results for `COc1cccc(/C=N/NC(=O)c2ccc(C)cc2O)c1` were, in that order, 20.6 µM, 32.64 and 672 µM.
Turning to `Cc1ccc(C(=O)N/N=C/c2cc(Br)ccc2O)c(O)c1`, the results for the half-inhibitory concentration (IC50) in data set [1] and in data set [4] were 1.09 µM and 2.6 µM, respectively. For the same compound, the “Ratio CC50/IC50” value in data set [2] amounted to 1371.95. The CC50 at 24 h in data set [3] was 1500 µM.
As for `Cc1ccc(C(=O)N/N=C/c2ccccc2O)c(O)c1`, the Activity entry in the data set listed under Mus musculus [5] and in the data set listed under Mus musculus [8] was “Dose-dependent effect” each time. In addition, the IC50 in data set [1] turned out to be 1.02 µM; in data set [4], 2.17 µM. For the same compound, in data set [2], the “Ratio CC50/IC50” value was found to be 745.65. Further, the midpoint of cytotoxicity in data set [3], the CC50 at 24 h, lay at 761 µM. Further, the selectivity ratio in data set [6] stood at 50. Further, the inhibition entry in data set [7] was “Dose-dependent effect”.
For the compound `Cc1ccc(C(=O)N/N=C/c2cc(Cl)ccc2O)c(O)c1`, the half-maximal inhibitory concentration (IC50) in data set [1] amounted to 1.29 µM; in data set [4], 3.69 µM. For the same compound, in data set [2], the “Ratio CC50/IC50” value is 433.84. The compound further displayed a CC50 at 24 h in data set [3] of 560 µM.
`COc1ccc(/C=N/NC(=O)c2ccc(C)cc2O)cc1`: the IC50 in data set [1] is greater than 100 µM. Moreover, in data set [2], the “Ratio CC50/IC50” value is less than 7.23. Further, the 50% cytotoxic concentration (CC50) at 24 h in data set [3] was determined as 723 µM.
The like results for `Cc1ccc(C(=O)N/N=C/c2ccc([N+](=O)[O-])cc2)c(O)c1` were, in that order, 24.3 µM, 30.23 and 734 µM.
The like results for `Cc1ccc(C(=O)N/N=C/c2ccc(N(C)C)cc2)c(O)c1` were, in that order, greater than 100 µM, less than 7.32 and 732 µM.
The corresponding values for `Cc1ccc(C(=O)N/N=C/c2ccc(F)cc2)c(O)c1` are 26.7 µM, 21.26 and 568 µM.
Turning to `Cc1ccc(C(=O)N/N=C/c2cc(Br)cc(Br)c2O)c(O)c1`, the 50% inhibitory concentration (IC50) in data set [1] turned out to be 2.02 µM; in data set [4], 7.12 µM. The “Ratio CC50/IC50” value in data set [2] was 484.63. Moreover, the CC50 at 24 h in data set [3] worked out at 979 µM.
In the case of `Cc1ccc(C(=O)N/N=C/c2ccccc2[N+](=O)[O-])c(O)c1`, the half-maximal inhibitory concentration (IC50) in data set [1] was greater than 100 µM. Also, in data set [2], the “Ratio CC50/IC50” value is given as less than 6.44. Also, in data set [3], the cytotoxic concentration (CC50) at 24 h turned out to be 644 µM.
The like results for `Cc1ccc(C(=O)N/N=C/c2cccc(Br)c2)c(O)c1` were, in that order, 28.3 µM, 4.01 and 113 µM.
The corresponding values for `Cc1ccc(C(=O)N/N=C/c2cccc(F)c2)c(O)c1` are 31.2 µM, 3.72 and 166 µM.
The like results for `Cc1ccc(C(=O)N/N=C/c2ccccc2Cl)c(O)c1` were, in that order, 19.2 µM, 6.51 and 125 µM.
Turning to `Cc1ccc(C(=O)N/N=C/c2ccccc2F)c(O)c1`, in data set [1], the 50% inhibitory concentration (IC50) stood at 42.1 µM. Also, the “Ratio CC50/IC50” value in data set [2] is 8.61. Also, half-maximal cytotoxicity in data set [3] (CC50 at 24 h) was put at 362 µM.
The corresponding values for `Cc1ccc(C(=O)N/N=C/c2ccc(Cl)cc2Cl)c(O)c1` are 9.78 µM, 29.79 and 291 µM.
In the case of `Cc1ccc(C(=O)N/N=C/c2cc(Cl)cc(Cl)c2O)c(O)c1`, the figures for the IC50 in data set [1] and in data set [4] were 1.51 µM and 4.81 µM, respectively. In data set [2], the “Ratio CC50/IC50” value turned out to be 468.72. This compound also returned a cytotoxic concentration (CC50) at 24 h in data set [3] of 708 µM. Further, the Activity entry in the data set filed under Mus musculus [8] is “Dose-dependent effect”.
